Here are results for 2 molecules from patent US20260049055A1, “SOLID FORMS OF […] […] USES THEREOF” (Sensorium Therapeutics, Inc., priority 2022, published 2026).

Series [1] concerns the target sodium-dependent serotonin transporter (SERT) (Homo sapiens, UniProt P31645). The following applies: reported for naturally occurring material from Sceletium tortuosum; cited from earlier work.
A short description of series [2]: Solubility of Freeform Form A in solvents. Type of series: physicochemical. From the text:
Freeform Form A was a gum material. The material had the solubility shown below:

sodium-dependent serotonin transporter (SERT), sequence (P31645 whole entry, species assumed): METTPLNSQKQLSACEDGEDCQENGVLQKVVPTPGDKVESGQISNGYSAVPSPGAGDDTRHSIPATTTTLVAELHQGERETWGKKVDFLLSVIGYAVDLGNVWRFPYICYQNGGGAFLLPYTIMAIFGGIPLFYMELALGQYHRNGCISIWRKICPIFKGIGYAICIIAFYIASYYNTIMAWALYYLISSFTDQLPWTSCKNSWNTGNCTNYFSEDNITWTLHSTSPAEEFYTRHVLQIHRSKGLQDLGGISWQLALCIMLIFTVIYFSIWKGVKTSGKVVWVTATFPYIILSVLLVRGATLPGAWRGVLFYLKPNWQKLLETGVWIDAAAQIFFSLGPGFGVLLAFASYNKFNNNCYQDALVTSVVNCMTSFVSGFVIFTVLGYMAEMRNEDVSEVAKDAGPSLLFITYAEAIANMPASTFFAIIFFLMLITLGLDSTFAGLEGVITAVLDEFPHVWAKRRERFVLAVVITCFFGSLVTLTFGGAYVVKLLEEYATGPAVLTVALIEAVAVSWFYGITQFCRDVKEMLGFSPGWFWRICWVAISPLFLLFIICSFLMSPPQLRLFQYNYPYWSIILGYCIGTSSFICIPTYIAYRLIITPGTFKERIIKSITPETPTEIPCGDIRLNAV

`COc1ccc([C@@]23CCC(=O)C[C@@H]2N(C)CC3)cc1OC` [Compound 1, (3aS,7aS)-3a-(3,4-dimethoxyphenyl)-1-methyl-2,3,4,5,7,7a-hexahydroindol-6-one]: the “serotonin (5-HT) uptake inhibition, in words” value in series [1] is “serotonin (5-HT) uptake inhibitory activity”.
On to `COc1ccc([C@@]23CCC(=O)C[C@@H]2N(C)CC3)cc1OC` [Freeform Form A, (3aS,7aS)-3a-(3,4-dimethoxyphenyl)-1-methyl-2,3,4,5,7,7a-hexahydroindol-6-one], for which the “Solubility (mg/mL)” value in series [2] (solvent 1,4-Dioxane) is “S > 40.0 mg/mL”; in series [2] (solvent 2-MeTHF), “S > 40.0 mg/mL”; in series [2] (solvent ACN) it was “S > 44.0 mg/mL”; in series [2] (solvent Acetone), “S > 40.0 mg/mL”; in series [2] (solvent CPME), “S > 40.0 mg/mL”; in series [2] (solvent DCM), “S > 42.0 mg/mL”. Besides, the “Solubility (mg/mL)” value is recorded as “S > 42.0 mg/mL” in series [2] (solvent EtOH); “S > 42.0 mg/mL” in series [2] (solvent H2O); “S > 38.0 mg/mL” in series [2] (solvent IPA); “S > 36.0 mg/mL” in series [2] (solvent IPAc); “S > 38.0 mg/mL” in series [2] (solvent MIBK); “S > 40.0 mg/mL” in series [2] (solvent MTBE). In addition, the “Solubility (mg/mL)” value is “S > 36.0 mg/mL” in series [2] (solvent MeOH) and “S > 44.0 mg/mL” in series [2] (solvent THF).
